Measured values taken from patent US20080070980A1, “Use Of Beta-Cryptoxanthin” (priority 2004, published 2008).

How the values were obtained:
[1] = tested on: genes involved in protein synthesis; assay: six weeks feeding study in SKH-1 mice, gene expression by GeneChip DNA microarray in kidney, liver, skin and spleen; type: in vivo; conditions: 1200 ppm in feed with sodium cholate
Procedure: In a six weeks study, β-cryptoxanthin beadlets were mixed into the diet of SKH-1 mice to provide 1200 ppm β-cryptoxanthin in the feed. Further, 0.125 g of sodium cholate per 100 g of feed was added to facilitate the uptake of β-cryptoxanthin. The average β-cryptoxanthin intake was 6.5 mg pro mouse and pro day. After six weeks, the effect of this dose on the overall gene expression was studied. β-cryptoxanthin-mediated gene expression modifications were assessed by GeneChip® DNA microarray technology. Total RNA was extracted from kidney, liver, skin and spleen using the TRIzol® method according to the manufacturer protocol. Reverse Transcription was performed with 10 μg total RNA followed by second strand synthesis of cDNA. The cDNA was then transcribed into multiple cRNA copies and labelled by biotin-coupled nucleotides and fragmented. 10 μg of labelled and fragmented cRNA were hybridized on Affymetrix Mice Genome 430A microarrays as described in the GeneChip® Expression Analysis Technical Manual (Affymetrix, Oxford, UK). For each β-cryptoxanthin-treated tissue, five replicates were performed and compared to six replicates of untreated control mice. […] Subsequently, the microarrays were subjected to laser scanning and the hybridization signals were analyzed with Genedata Expressionist® and Phylosopher® software packages (Genedata, Basel, Switzerland). […]

[2] = tested on: mouse myoblast cell line C2C12; assay: protein formation in C2C12 muscle cell cultures (BCA protein assay, Pico-green DNA assay); type: cell-based
Procedure: β-Cyptoxanthin enhances protein formation in muscle cell cultures
C2C12 cells from American Type Culture Collection (ATCC, CRL-1772).
The mouse myoblast cell line C2C12 was seeded into 6 cm^2 cell culture dishes at a density 2×10^5 cells/per well. Cells were cultivated in the presence of Dulbecco's […] (DMEM) containing a final concentration of 10% fetal calf serum, 4500 mg/L glucose, 100 IU/ml Penicillin & 100 μg/ml Streptomycin 2 mM L-Glutamine and 1 mM sodium pyruvate. One day post seeding, cells were supplemented with fresh medium containing β-cryptoxanthin with a final concentration of 0.25 μM or 1 μM or vehicle (tetrahydrofurane). β-cryptoxanthin stock solution was prepared in tetrahydrofurane and the solvent concentration in the media was kept constant at 0.14% for all treatment conditions. Cultivation in medium containing β-cryptoxanthin followed up for a total of 7 consecutive days. The medium was changed every second day. On each day, cells from one well per treatment group were scraped into 0.4 ml of a lysis buffer consisting of 20 mM Tris pH 7.5, NaCl 150 mM, EDTA 1 mM, Nonidet 1%, proteinase inhibitors (Roche Molecular Systems, Mannheim Germany) and sonicated.
Aliquots of 10 μl of this solution were used for total protein, and 2 μl for total DNA analysis. After centrifugation for 5 min at 10000 g, supernatants were used for protein and DNA analysis in the soluble fraction.
Protein was determined using the BCA Protein Assay Reagent (Pierce, Rockford, USA). The Pico-green Assay (Molecular Probes, Leiden, The Netherlands) was used for analysis of DNA content.
The amount of protein was calculated as μg/well or in relation to the amount of cells present in the well, as indirectly determined by the amount of DNA/well.

[3] = 0.25 μM, 1 day in culture, C2C12
[4] = 0.25 μM, 2 days in culture, C2C12
[5] = 0.25 μM, 3 days in culture, C2C12
[6] = 0.25 μM, 4 days in culture, C2C12
[7] = 0.25 μM, 5 days in culture, C2C12
[8] = 0.25 μM, 6 days in culture, C2C12
[9] = 0.25 μM, 7 days in culture, C2C12

CC1=C(/C=C/C(C)=C/C=C/C(C)=C/C=C/C=C(C)/C=C/C=C(C)/C=C/C2=C(C)C[C@@H](O)CC2(C)C)C(C)(C)CCC1 [β-cryptoxanthin]
expression of genes involved in protein synthesis in skin, liver, kidney and spleen [1]: up-regulated
soluble protein μg/well [2, 3]: 536 μg/well
total protein μg/well [2, 3]: 703.6 μg/well
μg soluble protein/μg DNA [2, 3]: 227 μg soluble protein/μg DNA
soluble protein μg/well [2, 4]: 592 μg/well
total protein μg/well [2, 4]: 753.6 μg/well
μg soluble protein/μg DNA [2, 4]: 244 μg soluble protein/μg DNA
soluble protein μg/well [2, 5]: 626 μg/well
total protein μg/well [2, 5]: 771.2 μg/well
μg soluble protein/μg DNA [2, 5]: 274 μg soluble protein/μg DNA
soluble protein μg/well [2, 6]: 915 μg/well
total protein μg/well [2, 6]: 1136 μg/well
μg soluble protein/μg DNA [2, 6]: 406 μg soluble protein/μg DNA
soluble protein μg/well [2, 7]: 1091 μg/well
total protein μg/well [2, 7]: 1314.4 μg/well
μg soluble protein/μg DNA [2, 7]: 505 μg soluble protein/μg DNA
soluble protein μg/well [2, 8]: 1267 μg/well
total protein μg/well [2, 8]: 1411.2 μg/well
μg soluble protein/μg DNA [2, 8]: 713 μg soluble protein/μg DNA
soluble protein μg/well [2, 9]: 1284 μg/well
total protein μg/well [2, 9]: 1257.2 μg/well
μg soluble protein/μg DNA [2, 9]: 693 μg soluble protein/μg DNA
change in soluble protein ([2]; 0.25 μM, C2C12 (Table 3)): an increase in soluble protein
change in specific amount of protein/μg DNA ([2]; 0.25 μM, C2C12 (Table 4)): an increase in the specific amount of protein/μg DNA
increase in total protein ([2]; 0.25 μM, C2C12, versus vehicle (Table 2)): approx. 1.4 fold
soluble protein μg/well ([2]; 1 μM, 1 day in culture, C2C12): 574 μg/well
total protein μg/well ([2]; 1 μM, 1 day in culture, C2C12): 750 μg/well
μg soluble protein/μg DNA ([2]; 1 μM, 1 day in culture, C2C12): 246 μg soluble protein/μg DNA
soluble protein μg/well ([2]; 1 μM, 2 days in culture, C2C12): 547 μg/well
total protein μg/well ([2]; 1 μM, 2 days in culture, C2C12): 757.2 μg/well
μg soluble protein/μg DNA ([2]; 1 μM, 2 days in culture, C2C12): 231 μg soluble protein/μg DNA
soluble protein μg/well ([2]; 1 μM, 3 days in culture, C2C12): 609 μg/well
total protein μg/well ([2]; 1 μM, 3 days in culture, C2C12): 750 μg/well
μg soluble protein/μg DNA ([2]; 1 μM, 3 days in culture, C2C12): 265 μg soluble protein/μg DNA
soluble protein μg/well ([2]; 1 μM, 4 days in culture, C2C12): 857 μg/well
μg soluble protein/μg DNA ([2]; 1 μM, 4 days in culture, C2C12): 382 μg soluble protein/μg DNA
soluble protein μg/well ([2]; 1 μM, 5 days in culture, C2C12): 1126 μg/well
total protein μg/well ([2]; 1 μM, 5 days in culture, C2C12): 1236 μg/well
μg soluble protein/μg DNA ([2]; 1 μM, 5 days in culture, C2C12): 539 μg soluble protein/μg DNA
soluble protein μg/well ([2]; 1 μM, 6 days in culture, C2C12): 1146 μg/well
total protein μg/well ([2]; 1 μM, 6 days in culture, C2C12): 1232.4 μg/well
μg soluble protein/μg DNA ([2]; 1 μM, 6 days in culture, C2C12): 624 μg soluble protein/μg DNA
soluble protein μg/well ([2]; 1 μM, 7 days in culture, C2C12): 1118 μg/well
total protein μg/well ([2]; 1 μM, 7 days in culture, C2C12): 1193.2 μg/well
μg soluble protein/μg DNA ([2]; 1 μM, 7 days in culture, C2C12): 644 μg soluble protein/μg DNA
effect on protein formation at higher concentration ([2]; 1 μM, C2C12): plateaued
